Tests used:
[1] = Drug release rate by HPLC (H2O2 activation of prodrug); format: physicochemical
Method: The target compound was dissolved in DMSO to give a 10 mM stock solution, which was then stored at −20° C. The final concentration was brought to 50 μM by adding the target compound (10 mM) to phosphate buffered saline (PBS) (10 mM, pH 7.4), and H2O2 was added. The solution was well vortexed, and then incubated at 37° C. Samples were taken at appropriate time intervals and analyzed by HPLC directly after injection, and the peak areas were recorded to calculate the percentage of the compound. The procedure was repeated three times. The following Agilent 1260 HPLC and DAD detectors were used: Agilent C18 column (4.6×150 mm, 3.5 μm); mobile phase: 70% methanol; flow rate: 0.5 mL/min. A standard curve of the compound was plotted against concentration.
After treatment with 10 mM H2O2, the prodrug pro2 was activated with prolonged incubation time and the active parent compound 2 was completely released within 3 h (HPLC-determined conversion >98%, (B) of FIG. 1 and (C) of FIG. 1).

[2] = Parallel artificial membrane permeability assay (PAMPA); format: in vitro ADME
Method: Potential solubility data were obtained with a pSOL model 3 instrument (pION INC, Cambridge, Massachusetts, USA). Cell membrane permeability was determined on a PAMPA Explorer instrument (pION).
Subsequently, the permeability of cell membranes was measured by standard parallel artificial membrane permeability assay (PAMPA).

[3] = pH stability in PBS buffers; format: physicochemical; conditions: PBS solutions, pH 4-10
Method: (1) pH stability. PBS buffers with different pH values (pH 4-10) were prepared from a 0.1 M HCl solution and a 0.1 M NaOH solution. The prodrug pro2 (20 μM) was incubated in triplicate together with the PBS buffers of different pH at 37° C. After 24 h of incubation, the solutions were filtered and injected for direct sample analysis by HPLC, and the peak areas were recorded to calculate the percentage of compound.

[4] = Stability in artificial gastric and intestinal fluids (SGF, SIF); format: physicochemical; conditions: after 8 h
Method: (4) Stability in artificial gastric and intestinal fluids. Artificial gastric and intestinal fluids were purchased from commercial suppliers. Samples of prodrug (20 μM) were incubated in triplicate with artificial gastric or intestinal fluids at 37° C. for different periods of time. The enzyme protein was precipitated by adding methanol, and the samples were vortexed and then centrifuged at 5000 rpm for 5 min. The supernatants of the samples were analyzed by HPLC and the peak areas were recorded. All chromatographic conditions were as described above.

[5] = Stability in plasma; format: in vitro ADME
Method: (2) Stability in plasma. Samples (20 μM) of the prodrug pro2 were co-incubated in triplicate with mouse plasma at 37° C. at different time periods. Methanol was added to precipitate the proteins, and the samples were vortexed and then centrifuged at 12,000 rpm for 5 min. The supernatants were analyzed by HPLC and the peak areas were recorded.

[6] = Stability in liver microsomes (human); format: in vitro ADME
Method: (§1) (3) Stability in microsomes. Isolated liver microsomes (from CD-1 male rats and human males) were used to evaluate the stability of the compound in microsomes in vitro. Ketanserin was used as a reference compound. A liver microsome solution (20 mg/mL) was added to a microcentrifuge tube containing PBS at 37° C. and the mixture was shaken for 10 min prior to assay. Then a DMSO solution (0.5 mM) containing the test compound was added. At 0 min, pre-cooled acetonitrile was added followed by an NADPH stock solution (6 mM). The plates were pre-incubated at 37° C. for 5 min. The timer started upon the addition of the NADPH stock solution (6 mM) to the plates. At 5 min, 15 min, 30 min and 45 min, pre-cooled acetonitrile was added to the wells of the respective plates to stop the reactions. After the reaction was quenched, the plates were shaken on a shaker for 10 min and then centrifuged at 5000 rpm for 15 min. The supernatant from each well was transferred to a 96-well sample plate containing ultrapure water for LC-MS/MS analysis.

[7] = Stability in liver microsomes (rat); format: in vitro ADME
Method: as §1

[8] = tested on: Nrf2/ARE luciferase reporter in HepG2-ARE-C8 cells; assay: ARE-luciferase activity assay; format: cell-based; conditions: no LPS (physiological conditions)
Method: HepG2-ARE-C8 cells were plated in a 96-well plate at a density of 4×10^4 cells/well and incubated overnight. The cells were then incubated with different concentrations of the test compound, with DMSO as a negative control and a luciferase cell lysis agent as a blank control. After 12 h of treatment, the medium was removed and 100 μL of pre-cooled PBS was added to each well to wash the cells. PBS was then removed and 30 μL of the luciferase cell lysis agent was added. After 15 min of lysis on ice, the cells were harvested and centrifuged, and 20 μL of the supernatant was taken for luciferase activity assay according to the protocol provided by the manufacturer (Promega, Madison, WI). The luciferase activity was measured by Luminoskan Ascent (Thermo Scientific, USA). The assay was performed in triplicate and the inductivity fold was calculated by comparing with the control.

[9] = tested on: Nrf2-ARE in RAW264.7 cells; assay: ARE inductivity under LPS stimulation; format: cell-based, mouse
[10] = tested on: Nrf2-ARE-driven gene transcription in RAW264.7 cells; assay: Real-time quantitative PCR of Nrf2, HO-1, NQO1 and GCLM; format: cell-based, mouse; conditions: 20 ng/mL LPS 8 h, compound 500 nM
Method: The procedures were performed according to the real-time quantitative RT-PCR experimental procedures reported previously (Z. Jiang, M. Lu, Q. D. You, Discovery and Development of Kelch-like ECH-Associated Protein 1: Nuclear Factor Erythroid 2-Related Factor 2 (KEAP1:NRF2) Protein-Protein Interaction Inhibitors: Achievements, Challenges and Future Directions, J. Med. Chem., 59 (2016) 10837-10858). The primers used for qRT-PCR were as follows: Nrf2 (forward primer: AACCACCCTGAAAGCACGC, reverse primer: […]); HO-1 (forward primer: […], reverse primer: […]); NQO-1 (forward primer: CGCAGACCTT-GTGATATTCCAG, reverse primer: […]); GCLM (forward primer: […], reverse primer: […]).
To determine the effect of pro2 on Nrf2-ARE-driven gene transcription, mRNA levels of Nrf2 and three downstream genes, HO-1, NQO1 and GCLM, were examined ((A) of FIG. 4 to (D) of FIG. 4). […] The protein levels of the above genes were determined by western blot.

[11] = tested on: IL-1β and IL-6 mRNA in RAW264.7 cells; assay: Real-time quantitative PCR of IL-1β and IL-6; format: cell-based, mouse; conditions: 20 ng/mL LPS 8 h

COc1ccc(S(=O)(=O)Nc2ccc(N(CC(=O)N3CCSC3=O)S(=O)(=O)c3ccc(OC)cc3)c3ccccc23)cc1 [pro2]
time to complete release of the active parent compound 2 ([1]; 10 mM H2O2): ≤ 3 h
HPLC-determined conversion ([1]; 10 mM H2O2, within 3 h): > 98%
release of the active parent compound 2 ([1]; H2O2 0.8 mM, 24 h incubation, HPLC): no less than 50%
Pe at pH 7.4 [2]: 6.35 10^−6 cm/s
Papp ([2]; pH 7.4, read-out: Pe at pH 7.4): 6.35 ×10⁻⁶ cm/s
hydrolytic stability in PBS [3]: hydrolytically stable
remaining in simulated gastric fluid (SGF) ([4]; SGF): > 50%
remaining in simulated intestinal fluid (SIF) ([4]; SIF): > 50%
stability in rat plasma [5]: very stable
stability in co-incubation with human liver microsomes [6]: very stable
stability in co-incubation with rat liver microsomes [7]: very stable
ARE inductivity [8]: remained almost inactive even at the highest concentration
EC50 ([9]; Mus musculus, RAW264.7, under LPS stimulation, read-out: EC50 of ARE inductivity): 320 nM
inductivity of Nrf2-ARE at different concentrations of LPS ([9]; RAW264.7 cells stimulated with LPS prior to administration, compound 200 nM): LPS concentration-dependent increase
transcription of Nrf2, HO-1, NQO1 and GCLM (mRNA) [10]: greatly enhanced the transcription
mRNA transcription of IL-1β and IL-6 [11]: significantly inhibit the induction by pro-inflammatory genes
